Test results published in patent publication US5955462A, “Anti-neurogenic inflammatory compounds and compositions and methods of use thereof” (Harbor Branch Oceanographic Institution, Inc., priority 1997, dated 1999).
“And” between values parts separate entries of the source, which are not always exact repeats. Identical values can stand only once.

Columns and labels:
mouse ear [1] = experiment: Inhibition of capsaicin-induced inflammation (edema) of the mouse ear; format: in vivo; conditions: for potency in inhibiting neurogenic inflammation compared with capsazepine: capsaicin-induced edema in mouse ears
From the text: The assay employing mice (e.g., administration to the ear of the mouse) is routinely used by those skilled in the art and is accepted as indicative of anti-inflammatory activity in humans. This assay is described below.
(§1) A. Inhibition of Capsaicin-Induced Inflammation (Edema) of the Mouse Ear. Induction of mouse ear edema was based on known methods. Inoue, H., Nagata, N., and Koshihara, Y. (1993). Profile of capsaicin-induced mouse ear oedema as neurogenic inflammatory model: comparison with arachidonic acid-induced ear oedema. Br. J. Pharm 110:1614-20. Compounds to be tested for anti-neurogenic inflammatory activity are topically applied in acetone to the ears of mice in a solution that includes the edema-causing irritant, capsaicin (CAP). CAP alone (250 μg/ear) or in combination with various dilutions of test compound are applied to both sides of the left ears (5 mice per treatment group) and acetone is applied to all right ears. After a 30 minute incubation, the mice are sacrificed, the ears removed, and bores taken and weighed. Edema is measured by subtracting the weight of the right ear (acetone control) from the weight of the left ear (treated). Results are recorded as % decrease (inhibition) or % increase (potentiation) in edema relative to the control group edema.

mouse ear [2] = experiment: Inhibition of resiniferatoxin (RTX)-induced edema in a mouse ear model; format: in vivo; conditions: for ED50 for inhibition of RTX-induced edema: dose response curve
Method: as §1, with “Compounds to be tested for anti-neurogenic inflammatory activity are topically applied in acetone to the ears of mice in a solution that includes the edema-causing irritant, capsaicin (CAP).” left out, “(treated).” for “(treated). Results are recorded as % decrease (inhibition) or % increase (potentiation) in edema relative to the control group edema.”
B. Inhibition of Resiniferatoxin (RTX)-induced edema in a mouse ear model. Topsentin was also tested for its inhibitory activity against inflammation induced by the neurogenic inflammation producing compound, resiniferatoxin (RTX). Using a mouse ear model, the experimental procedure is substantially the same as that described for the capsaicin-induced inflammation assay (see section A of this Example, above).

[3] = Mus musculus, topical, 50 μg/ear, read-out: % Inh. of Edema
[4] = Mus musculus, topical, 3.12 μg/ear, read-out: % Inh. of Edema
[5] = Mus musculus, topical, 6.25 μg/ear, read-out: % Inh. of Edema
[6] = Mus musculus, topical, 12.5 μg/ear, read-out: % Inh. of Edema
[7] = Mus musculus, topical, 25 μg/ear, read-out: % Inh. of Edema
[8] = 3.12 μg/ear, listed as hamacanthin b
[9] = 50 μg/ear, listed as hamacanthin b

SMILES	Mean difference (mouse ear [2]; 50 μg/ear) [mg]	inhibition in vivo at 50 µg/ear (mouse ear [2]; [3]) [%]	Mean difference (mouse ear [2]; 3.12 μg/ear) [mg]	Mean difference (mouse ear [2]; 6.25 μg/ear) [mg]	Mean difference (mouse ear [2]; 12.5 μg/ear) [mg]	Mean difference (mouse ear [2]; 25 μg/ear) [mg]	inhibition of RTX-induced edema in certain animals (mouse ear [2]; 50 μg on the ear) [%]	inhibition in vivo at 25 µg/ear (mouse ear [2]; [7]) [%]	ED50 for inhibition of RTX-induced edema (mouse ear [2])	other results
Oc1cc2c(cc1O)CN(C(=S)NCCc1ccc(Cl)cc1)CCC2 [Capsazepine, reference compound]										% Inhibition of capsaicin-induced edema (mouse ear [1]; 500 μg/ear): 33%; % Inhibition of capsaicin-induced edema (mouse ear [1]; 1000 μg/ear): 52%; % Inhibition of capsaicin-induced edema (mouse ear [1]; 1500 μg/ear): 76%
Brc1ccc2c(-c3c[nH]c(-c4c[nH]c5cc(Br)ccc45)n3)c[nH]c2c1 [Nortopsentin A]	-0.4	100								
Brc1ccc2c(-c3nc(-c4c[nH]c5ccccc45)c[nH]3)c[nH]c2c1 [Nortopsentin B]	0.9	91.2								
NCC(c1c[nH]c2cc(Br)ccc12)c1c[nH]c2cc(Br)ccc12 [2,2-bis(6-bromoindol-3-yl)ethyl amine]	0.1	~99	11.9	13.2	5.8	2.1	~100	81.5	about 18.1 μg/ear	inhibition in vivo at 3.12 µg/ear (mouse ear [2]; [4]): 6.8%; inhibition in vivo at 6.25 µg/ear (mouse ear [2]; [5]): 18%; inhibition in vivo at 12.5 µg/ear (mouse ear [2]; [6]): 86.8%
O=C1NC[C@H](c2c[nH]c3cc(Br)ccc23)N=C1c1c[nH]c2cc(Br)ccc12 [Hamacanthin B]	0.4		3.9	6.7	4.9	2.3	~100		about 1.5 μg/ear	% Inh. of Edema (mouse ear [2]; 3.12 μg/ear, listed as Hamacanthin b): 68%; % Inh. of Edema (mouse ear [2]; [8]): 68.8%; Difference (mg), left minus right ear, individual animal (mouse ear [2]; [8]): 4.4 mg and 6.9 mg and 1.5 mg and 1.2 mg and 5.3 mg; % Inh. of Edema (mouse ear [2]; 6.25 μg/ear): 46.0%; Difference (mg), left minus right ear, individual animal (mouse ear [2]; 6.25 μg/ear): 6.9 mg and 7.4 mg and 7.0 mg and 8.4 mg and 5.4 mg; % Inh. of Edema (mouse ear [2]; 12.5 μg/ear): 86.8%; Difference (mg), left minus right ear, individual animal (mouse ear [2]; 12.5 μg/ear): 4.6 mg and 4.1 mg and 6.1 mg and 8.3 mg and 1.4 mg; % Inh. of Edema (mouse ear [2]; 25 μg/ear): 81.6%; Difference (mg), left minus right ear, individual animal (mouse ear [2]; 25 μg/ear): 2.3 mg and 4.2 mg and 2.0 mg and 1.0 mg and 1.9 mg; % Inh. of Edema (mouse ear [2]; 50 μg/ear, listed as Hamacanthin b): about 97%; % Inh. of Edema (mouse ear [2]; [9]): 96.9%; Difference (mg), left minus right ear, individual animal (mouse ear [2]; [9]): 0.2 mg and 0.0 mg and 1.4 mg and 0.1 mg
O=C(C1=NC(c2c[nH]c3cc(Br)ccc23)CN1)c1c[nH]c2ccccc12 (centres unmarked) [4,5-dihydro-6"-deoxybromotopsentin]	3.3	87.1								
O=C(c1nc(-c2c[nH]c3ccccc23)c[nH]1)c1c[nH]c2cc(O)ccc12 [Topsentin]	2.6	82				8.3		41	about 20 μg/ear	% Inhibition of capsaicin-induced edema (mouse ear [1]; 100 μg/ear): 28%; Inflammation (mg) ± SEM (mouse ear [1]; 100 μg/ear topical, capsaicin 250 μg/ear): 4.8 ± 1.0 mg; % Inhibition of capsaicin-induced edema (mouse ear [1]; 100 μg/ear, listed as topsentin): more than 25%; % Inhibition of capsaicin-induced edema (mouse ear [1]; 250 μg/ear): 66%; % Inhibition of capsaicin-induced edema (mouse ear [1]; 500 μg/ear): 74%; % Inhibition of capsaicin-induced edema (mouse ear [1]; 1000 μg/ear): 90%; potency in inhibiting neurogenic inflammation compared with capsazepine (mouse ear [1]): greater potency in inhibiting neurogenic inflammation than capsazepine; ED50 in inhibition of capsaicin-induced inflammation (mouse ear [1]; dose-response curve, FIG. 1): about 200 μg/ear; percent inhibition of edema (up to) (mouse ear [1]; final concentration of about 1000 μM): approximately 90%; Mean difference (mouse ear [2]; 5 μg/ear): 12.3 mg; Mean difference (mouse ear [2]; 10 μg/ear): 9.6 mg; inhibition of RTX-induced edema in certain animals (mouse ear [2]; 100 μg on the ear): about 100%; Mean difference (mouse ear [2]; 100 μg/ear): 1.3 mg; inhibition in vivo at 5 µg/ear (mouse ear [2]; Mus musculus, topical, 5 μg/ear, read-out: % Inh. of Edema): ~12%; inhibition in vivo at 10 µg/ear (mouse ear [2]; Mus musculus, topical, 10 μg/ear, read-out: % Inh. of Edema): 31%; inhibition in vivo at 100 µg/ear (mouse ear [2]; Mus musculus, topical, 100 μg/ear, read-out: % Inh. of Edema): ~91%
O=C(c1nc(-c2c[nH]c3cc(Br)ccc23)c[nH]1)c1c[nH]c2cc(O)ccc12 [Bromotopsentin]										% Inhibition of capsaicin-induced edema (mouse ear [1]; 500 μg/ear): 79%; potency in inhibiting neurogenic inflammation compared with capsazepine (mouse ear [1]): greater potency in inhibiting neurogenic inflammation than capsazepine
CS(=O)(=O)Oc1ccc2c(C(=O)c3nc(-c4c[nH]c5cc(Br)ccc45)c[nH]3)c[nH]c2c1 [o-mesylbromotopsentin, bromotopsentin-O-mesylate]	3	70.3	9.2	7.2	8.3	2.3	70	77.6	about 17 μg/ear	inhibition in vivo at 3.12 µg/ear (mouse ear [2]; [4]): 8.9%; inhibition in vivo at 6.25 µg/ear (mouse ear [2]; [5]): 28%; inhibition in vivo at 12.5 µg/ear (mouse ear [2]; [6]): 86.8%
CC(c1c[nH]c(N)n1)c1ccc(O)c2[nH]cc(-c3cnc(-c4c[nH]c5cc(Br)ccc45)c(=O)[nH]3)c12 (centres unmarked) [Dragmacidin d, Dragmacidin-d]	1.4	89.6								
Brc1ccc2c(-c3c[nH]c(-c4c[nH]c5ccccc45)n3)c[nH]c2c1 [Nortopsentin C]	0.2	~98	9.3	5.4	1.3	1.0	~100	90.2	about 8 μg/ear	inhibition in vivo at 3.12 µg/ear (mouse ear [2]; [4]): 5.9%; inhibition in vivo at 6.25 µg/ear (mouse ear [2]; [5]): 45%; inhibition in vivo at 12.5 µg/ear (mouse ear [2]; [6]): 86.8%
